Results: patent US9580487B2, “Method of treating stomach or bowel-related disorders by administering glucagon-like-peptide-2 (GLP-2) analogues” (Zealand Pharma A/S, priority 2005, dated 2017)
“Also recorded” adds a separate entry of the source. No end group written: not given here.

System: C57BL mice treated with 5-Fluorouracil (5-FU)
Assay: 5-FU-induced small intestinal atrophy (SI-BW, SI length) in mice
Assay type: in vivo
Settings: for 5-FU-induced small intestine atrophy (SI-BW, SI length): 5-405 (810) nmol/kg s.c. b.i.d., 3 days prior to and 4 days with 5-FU 50 mg/kg i.p. daily; for Efficacy on SI-length compared with 405 nmol/kg [Gly2]GLP-2 / Efficacy on SI-BW compared with 405 nmol/kg [Gly2]GLP-2: 5-FU treated mice; for Efficacy on SI-BW compared with 405 nmol/kg [Gly2]GLP-2: equimolar dose; for Efficacy on 5-FU-induced atrophy compared with [Gly2]GLP-2 (figure legends): high/highest doses vs [Gly2]GLP-2 405 nmol/kg
Protocol: (§1) FIG. 6 is a set of graphs showing the effect of compound 1846 (SEQ ID NO:34) (5, 15, 45, 135, 405 and 810 nmol/kg, s.c., b.i.d.; n=6/dose group) on A) small intestine-to-body weight ratio (SI-BW), and B) small intestinal length (SI length) in mice treated with the cytostatic drug 5-Fluorouracil (5-FU). Compound 1846 (SEQ ID NO:34) was administered for 3 days prior to and for 4 days together with 5-FU, 50 mg/kg, i.p. daily. For reference, [Gly2]GLP-2 (SEQ ID NO:54) (405 nmol/kg) was given to one group of animals. Results from control animals treated with vehicle (PBS) or 5-FU alone are also shown. […] Values are means±SEM. * P<0.05, relative to 5-FU.
as §1, with “FIG. 7” for “FIG. 6”, “compound 1848” for “compound 1846”, “ID NO:36)” for “ID NO:34)”, “Compound 1848” for “Compound 1846”, “5-FU. # P<0.05, relative to [Gly2]GLP-2.” for “5-FU.”
FIG. 8 is a set of graphs showing the effect of compound 1855 (SEQ ID NO:43) (5, 15, 45, 135, and 405 nmol/kg, s.c., b.i.d.; n=6/dose group) on A) small intestine-to-body weight ratio (SI-BW), and B) small intestinal length (SI length) in mice treated with the cytostatic drug 5-Fluorouracil (5-FU). Compound 1855 (SEQ ID NO:43) was administered for 3 days prior to and for 4 days together with 5-FU, 50 mg/kg, i.p. daily. For reference, [Gly2]GLP-2 (405 nmol/kg) was given to one group of animals. Results from control animals treated with vehicle (PBS) or 5-FU alone are also shown. […] Values are means±SEM. * P<0.05, relative to 5-FU. # P<0.05, relative to [Gly2]GLP-2 (SEQ ID NO:54).
FIG. 9 is a set of graphs showing the effect of compound 1857 (SEQ ID NO:45) (5, 15, 45, 135, and 405 nmol/kg, s.c., b.i.d.; n=6/dose group) on A) small intestine-to-body weight ratio (SI-BW), and B) small intestinal length (SI length) in mice treated with the cytostatic drug 5-Fluorouracil (5-FU). Compound 1857 (SEQ ID NO:45) was administered for 3 days prior to and for 4 days together with 5-FU, 50 mg/kg, i.p. daily. For reference, [Gly2]GLP-2 (SEQ ID NO:54) (405 nmol/kg) was given to one group of animals. Results from control animals treated with vehicle (PBS) or 5-FU alone are also shown. […] Values are means±SEM. * P<0.05, relative to 5-FU. # P<0.05, relative to [Gly2]GLP-2 (SEQ ID NO:54).
The rapid rate of proliferation of the small intestinal stem cells, makes them a susceptible target to the cytotoxic effects of the chemotherapeutic agents used in anti-cancer therapies. Consequently, clinical use of the chemotherapeutic agent 5-fluorouracil (5-FU) is frequently associated with small intestinal injury (atrophy and diarrhea in cancer patients. We have previously shown that i.p. administration of 50 mg/kg 5-FU once daily for four days induces significant small intestinal atrophy in C57BL mice. The effect of the lead compounds, 1846 (SEQ ID NO:34), 1848 (SEQ ID NO:36), 1855 (SEQ ID NO:43), and 1857 (SEQ ID NO:45) on 5-FU-induced small intestinal atrophy was investigated in mice. 1846 (SEQ ID NO:34), 1848 (SEQ ID NO:36), 1855 (SEQ ID NO:43), or 1857 (SEQ ID NO:45) were administered twice daily for three days prior to 5-FU and for four days together with 5-FU administration. The lead compounds were each administered at five different doses (5, 15, 45, 135 and 405 nmol/kg) that have been previously shown to effectively stimulate small intestine growth in healthy mice (Example 9). […]

[Gly2, Glu3, Leu10, Ser11, Ala16,24,28]hGLP-2(1-33)-NH2 [Compound 1857]
5-FU-induced small intestine atrophy (SI-BW, SI length): prevented 5-FU-induced small intestine atrophy; also recorded: dose-dependently prevented 5-FU-induced SI atrophy and maintained SI-BW at levels similar to PBS controls | Efficacy on SI-length compared with 405 nmol/kg [Gly2]GLP-2: significantly more efficacious than 405 nmol/kg [Gly2]GLP-2 | Efficacy on SI-BW compared with 405 nmol/kg [Gly2]GLP-2: significantly more efficacious than 405 nmol/kg [Gly2]GLP-2

[Gly2, Glu3, Ser8,11, Leu10, Ala16,24,28]hGLP-2(1-33)-(Lys)6-NH2 (HGEGSFSSELSTILDALAARDFIAWLIATKITDKKKKKK-NH2) [Compound 1846]
5-FU-induced small intestine atrophy (SI-BW, SI length): prevented 5-FU-induced small intestine atrophy; also recorded: dose-dependently prevented 5-FU-induced SI atrophy and maintained SI-BW at levels similar to PBS controls

[Gly2, Glu3, Thr5, Ser8, Leu10, Ala11,16,24,28]hGLP-2(1-33)-(Lys)6-NH2 (HGEGTFSSELATILDALAARDFIAWLIATKITDKKKKKK-NH2) [Compound 1848]
5-FU-induced small intestine atrophy (SI-BW, SI length): prevented 5-FU-induced small intestine atrophy; also recorded: dose-dependently prevented 5-FU-induced SI atrophy and maintained SI-BW at levels similar to PBS controls | Efficacy on SI-length compared with 405 nmol/kg [Gly2]GLP-2: significantly more efficacious than 405 nmol/kg [Gly2]GLP-2 | Efficacy on SI-BW compared with 405 nmol/kg [Gly2]GLP-2: significantly more efficacious than 405 nmol/kg [Gly2]GLP-2 | Efficacy on 5-FU-induced atrophy compared with [Gly2]GLP-2 (figure legends): more efficacious than [Gly2]GLP-2

[Gly2, Glu3, Thr5, Ser8, Leu10, Ala11,16,24,28]hGLP-2(1-33)-NH2 [Compound 1855]
5-FU-induced small intestine atrophy (SI-BW, SI length): prevented 5-FU-induced small intestine atrophy; also recorded: dose-dependently prevented 5-FU-induced SI atrophy and maintained SI-BW at levels similar to PBS controls | Efficacy on SI-BW compared with 405 nmol/kg [Gly2]GLP-2: significantly more efficacious than 405 nmol/kg [Gly2]GLP-2 | Efficacy on 5-FU-induced atrophy compared with [Gly2]GLP-2 (figure legends): more efficacious than the equimolar dose of [Gly2]GLP-2; also recorded: more efficacious than a high dose of [Gly2]GLP-2
